The text below walks through data of patent US20030059483A1, “Color stable hypochlorous sanitizer and methods” (priority 1999, published 2003).

Type in all cases: physicochemical
A short description of data set [1]: Dye and chlorine stability test, effect of pH. To be noted: 1 ppm dye; for Initial Color/Appearance: additional formulations; for Initial Color/Appearance / Time needed for solution to become colorless: 100 ppm active chlorine; for Color/Appearance: initial 100 ppm chlorine.
A short description of data set [2]: Color longevity at varying active chlorine and dye level, pH 5.8. To be noted: for Initial Color/Appearance / Time needed for solution to become colorless: 1 ppm dye.
The nature of data set [3]: Chlorine stability of acid sanitizer solutions. Particulars: chlorine 12 ppm, pH 5.13.

As to `COc1cc(S(=O)(=O)[O-])c(C)cc1N=Nc1c(O)ccc2cc(S(=O)(=O)[O-])ccc12.[Na+].[Na+]` [FD&C Red #40], the “Initial Color/Appearance” value was “colorless” in data set [1] (pH buffered at 2); “visible color” in data set [1] (pH buffered at 4); “visible color” in data set [1] (pH buffered at 5.4); “visible color” in data set [1] (pH buffered at 5.8); “visible color” in data set [1] (pH buffered at 6); “visible color” in data set [1] (pH buffered at 8). Besides, the “Initial Color/Appearance” value is given as “colorless” in data set [1] (pH buffered at 10); “colorless” in data set [1] (pH buffered at 12); “visible” in data set [2] (10 ppm available chlorine); “visible” in data set [2] (30 ppm available chlorine); “visible” in data set [2] (50 ppm available chlorine); “visible” in data set [2] (80 ppm available chlorine). Also, in data set [2] (100 ppm available chlorine), the “Initial Color/Appearance” value is on record as “visible”. In addition, the Color/Appearance entry in data set [1] (pH buffered at 2, 0.0 hours) is “color gone immediately”; in data set [1] (pH buffered at 2, 175 hours), “no color”; in data set [1] (pH buffered at 4, 2.5 hours), “color gone”; in data set [1] (pH buffered at 4, 175 hours), “no color”; in data set [1] (pH buffered at 6, 5.0 hours), “slightly visible”; in data set [1] (pH buffered at 6, 175 hours) it was “no color”. Further, the Color/Appearance entry was “color gone” in data set [1] (pH buffered at 8, 0.25 hours); “no color” in data set [1] (pH buffered at 8, 175 hours); “color gone immediately” in data set [1] (pH buffered at 10, 0.0 hours); “no color” in data set [1] (pH buffered at 10, 175 hours); “color gone immediately” in data set [1] (pH buffered at 12, 0.0 hours); “no color” in data set [1] (pH buffered at 12, 175 hours). Further, the “Time needed for solution to become colorless” value (shortened to “Time needed for solution”) in data set [1] (pH buffered at 2) is “none”; in data set [1] (pH buffered at 4) it was 2.5 h; in data set [1] (pH buffered at 5.4) it was 15 h; in data set [1] (pH buffered at 5.8), 5.0 h; in data set [1] (pH buffered at 6), 4.0 h; in data set [1] (pH buffered at 8), 0.25 h. For the same molecule, the “Time needed for solution” value was “none” in data set [1] (pH buffered at 10); “none” in data set [1] (pH buffered at 12); “more than 6.0 hours” in data set [2] (10 ppm available chlorine); 6.0 h in data set [2] (30 ppm available chlorine); 5.0 h in data set [2] (50 ppm available chlorine); 4.5 h in data set [2] (80 ppm available chlorine). Further, the “Time needed for solution” value in data set [2] (100 ppm available chlorine) came out at 3.0 h. Also, in data set [2] (dye level 0.1 to 0.4 wt-%, 100 ppm available chlorine), the “relationship between dye concentration and color longevity” value was “linear relationship between dye concentration and color longevity”.

In the case of “Chlorinated trisodium phosphate [Chlorinated TSP]”, in data set [3] (0 time), the “Chlorine (ppm) Conc. 0 Time” value is 12.7 ppm. For the same molecule, the “Chlorine (ppm) Conc. 4 Hours” value in data set [3] (4 hours) amounted to 9.93 ppm. For the same molecule, the “Chlorine (ppm) Conc. 24 Hours” value in data set [3] (24 hours) worked out at 5.67 ppm.
